From PubChem BioAssay AID1996
In brackets after ≈: the same amount, converted by molar mass.

settings: buffer; pH 7.4; 200.0 µM

SMILES | solubility kinetic [µg/mL]
CC(C)(C)c1ccc(-c2nc(N)nc(N)n2)cc1 | 0.9 (≈ 3.7 µM)
CC1=C(C)CC(C(=O)NCCCN2CCCC2=O)C(C(=O)O)C1 (stereo not given) | > 48.4
O=C(NCc1ccccc1F)c1ccc2c(c1)OCCO2 | > 43.1
O=C(/C=C\N1CCOCC1)c1ccc(Br)cc1 | > 44.4
O=C(O)C(=O)O.O=S(=O)(c1cccc(C(F)(F)F)c1)N1CCN(CC(O)COCc2ccccc2)CC1 (stereo not given) | > 82.3
COc1cccc2[nH]c(C(=O)NC(C)c3ccccc3)cc12 (stereo not given) | > 44.2
CCOc1ccccc1NC(=O)c1ccccc1N(C)S(=O)(=O)c1ccc(C)cc1 | 3.2 (≈ 7.54 µM)
COc1ccc(-c2nc(-c3cccnc3)no2)cc1OC | 25.8 (≈ 91.1 µM)
COCCNc1oc(/C=C/c2ccccc2)nc1C#N | > 40.4
CCOC(=O)CC1C(=O)NCCN1S(=O)(=O)c1ccc(C)cc1 (stereo not given) | > 51.1
Clc1ccc(OCCN2CCOCC2)cc1 | 28.7 (≈ 119 µM)
COC(=O)c1ccc(CNC(=O)COC(=O)/C=C/c2cc(OC)c(OC)c(OC)c2)cc1 | 4.6 (≈ 10.4 µM)
Cc1cc2ncc(-c3cccs3)nc2cc1C | < 0.3
Cl.O=C(NCCCN1CCOCC1)C(=O)c1c[nH]c2ccccc12 | > 52.8
O=C(c1ccco1)N1CCN(c2ccc([N+](=O)[O-])cc2Cl)CC1 | 3.8 (≈ 11.3 µM)
COc1ccc(-c2cc(=O)[nH]c(N3CCN(Cc4ccccc4)CC3)n2)cc1 | 0.8 (≈ 2.13 µM)
CCCCn1c(N2CCCC2)nc2c1c(=O)[nH]c(=O)n2C | > 43.7
O=C(CNC(=O)c1ccco1)Nc1ccc(F)cc1 | 37 (≈ 141 µM)
Cc1c(C(=O)N2CCN(C)CC2)oc2ccc(Br)cc12 | > 50.6
O=C(OCc1cc2ccccc2[nH]c1=O)c1cccc([N+](=O)[O-])c1 | 0.8 (≈ 2.47 µM)
CCCn1c2ccccc2c2cnn(CC(=O)NCCN(C)C)c(=O)c21 | > 53.3
O=C(Nc1ccccc1F)c1ccccc1C(=O)Nc1ccccc1F | 32.5 (≈ 92.2 µM)
O=C(NC1CCCCNC1=O)c1ccco1 (stereo not given) | > 33.3
O=C(NCc1ccccn1)C(=O)Nc1nc(-c2ccccc2)cs1 | 1.6 (≈ 4.73 µM)

SMILES | solubility kinetic [µg/mL]
Cc1cc(S(=O)(=O)c2ccc([N+](=O)[O-])cn2)ccc1Br | 1.7 (≈ 4.76 µM)
CCOc1ncccc1C(=O)N=c1sccn1C | > 39.5
O=C1CNC(=S)N1CCCc1ccccc1 | > 35.1
CCc1ccc(C(=O)COC(=O)CNC(=O)C2CCCCC2)cc1 | 18.1 (≈ 54.6 µM)
N#Cc1ccc(NC(=O)CN2CCN(c3ccccn3)CC2)cc1 | 16.4 (≈ 51 µM)
CC(C)N(C(=O)COC(=O)c1cccnc1Cl)c1ccccc1 | > 49.9
CC(C)c1onc(C(=O)Nc2cccc(O)c2)c1[N+](=O)[O-] | 37.4 (≈ 128 µM)
Cc1ccc(C(=O)NCC(=O)NC2CCC(C)CC2)s1 (stereo not given) | 7.6 (≈ 25.8 µM)
Cc1ccc(NC(=O)CCS(=O)(=O)c2cccc3nonc23)cc1 | 18.1 (≈ 52.4 µM)
O=c1c(Cc2c(F)cccc2Cl)c(O)ccn1C1CCCCCC1 | < 0.7
Cn1c(=O)c(C=Nc2ccccc2)c(O)c2ccccc21 | 11.2 (≈ 40.2 µM)
CC(=O)Nc1nc(C)c(Oc2ccc(Cl)cc2)c(=O)[nH]1 | 43 (≈ 146 µM)
O=C(O)c1ccc2c(c1)CCCN2 | > 26.6
COc1ccc(N2C(=O)/C(=C/c3cccs3)C(=O)NC2=S)cc1 | 31.4 (≈ 91.2 µM)
COc1c(-c2ccc([N+](=O)[O-])cc2[N+](=O)[O-])c(=O)n(C)c(=O)n1C | > 50.4
Cc1ccc(S(=O)(=O)NCCC(=O)NC2CC2)cc1 | > 42.4
CC(=O)c1nc2ccccc2n1CCc1ccccc1 | 27.5 (≈ 104 µM)
N#Cc1ccc(S(=O)(=O)Nc2ccccc2N2CCOCC2)cc1 | > 51.5
C=CCn1cccc(C(=O)Nc2ccc(C)c(Cl)c2)c1=O | < 0.3
O=C(CNC(=O)c1ccc(Cl)cc1Cl)NCC1CCCO1 (stereo not given) | > 49.7
CSc1ccccc1NC(=O)COC(=O)c1ccc(O)cc1 | 12.2 (≈ 38.4 µM)
Cc1cccc[n+]1CC(=O)c1ccccc1.[Br-] | > 43.8
CN(Cc1ccccc1N1CCCC1)C(=O)c1cc2ccccc2o1 | 11.1 (≈ 33.2 µM)
CN(C)C=Nc1ccc2nc3c(cc2c1)[nH]c1ccccc13 | > 43.3

SMILES | solubility kinetic [µg/mL]
CN(C(=O)COc1ncnc2sccc12)c1ccccc1 | 39.4 (≈ 132 µM)
CC1CCC2(CC1)NC(=O)N(CC(=O)Nc1ccc(C(N)=O)cc1)C2=O (stereo not given) | > 53.8
CC(=O)Nc1ccc(C(=O)O)cc1 | > 26.9
Cc1cnc(C(=O)Oc2ccc(-c3ccccc3)cc2)cn1 | 2.8 (≈ 9.64 µM)
O=C(NCc1ccccc1)c1cc2ccccc2oc1=O | 2.7 (≈ 9.67 µM)
Cc1ccc2nc(SCC(=O)c3ccccc3)nc(=O)n2c1 | 33 (≈ 106 µM)
Cc1cccc(N2CCc3c2nc2ccc(Br)cc2c3N)c1.Cl | 0.6
CCc1nc2ccccc2n1CCc1ccccc1.Cl | 37.6
O=C(O)CNc1ccc(S(=O)(=O)C(F)(F)F)cc1[N+](=O)[O-] | 44.7 (≈ 136 µM)
COc1ccc(Cl)cc1C(=O)NN=C1CCCC1 | > 40
COc1cccc(OC)c1C(=O)NC(=O)Oc1c(F)cccc1F | 43.8 (≈ 130 µM)
COc1ccc(-c2cc(C(F)(F)F)nc(-n3ccnc3)n2)cc1 | 0.6 (≈ 1.87 µM)
CCOc1ccc(Br)cc1S(=O)(=O)NC1=NCCCCC1 | > 56.3
CN1C(=O)c2ccccc2N(C)C1c1ccc(F)cc1 (stereo not given) | 30.7 (≈ 114 µM)
O=C1NC(=O)N(Cc2ccc(F)cc2)C(=O)/C1=C\c1ccoc1 | 46.6 (≈ 148 µM)
Cc1ccc(C(=O)NCC(=O)NCCCc2ccccc2)cc1 | > 46.6
O=C(Nc1ccccc1N1CCCC1)c1ccccc1F | 19.8 (≈ 69.6 µM)
C=CCN(c1ccccc1)S(=O)(=O)c1cccc(C(=O)NCc2ccco2)c1 | 23.9 (≈ 60.3 µM)
COc1ccc(-c2cc(C(=O)N3CCCC3)c3ccccc3n2)cc1OC | 53.9 (≈ 149 µM)
O=C1NC(Cc2ccccc2)C(=O)Nc2ccc(Br)cc21 (stereo not given) | 15.7 (≈ 45.5 µM)
CC(C)(C)NS(=O)(=O)c1ccc(NC(=O)C2CCCO2)cc1 (stereo not given) | 43.7 (≈ 134 µM)
COC(=O)c1cc2ccccc2n1S(=O)(=O)c1ccccc1 | < 0.7
CCc1c(C)nc(SCc2cccnc2)[nH]c1=O | > 39.2
CSc1nc2nc3c(cc2c(=O)n1-c1ccc(C)cc1)COC(C)(C)C3 | 2.3 (≈ 6.26 µM)

SMILES | solubility kinetic [µg/mL]
CC(=O)N1CCN(C(=O)c2cc(C)nc3ccccc23)CC1 | 33.7 (≈ 113 µM)
O=C(Nc1ccc(F)cc1F)NC1CCCCCCC1 | 1.9 (≈ 6.73 µM)
Cc1ccccc1C(=O)Nc1cccc(NC(=O)c2ccccc2[N+](=O)[O-])c1 | 1.2 (≈ 3.2 µM)
COCCN(C(=S)Nc1ccc(C)cc1C)C(C)c1cccs1 (stereo not given) | 7.7 (≈ 22.1 µM)
O=C(NC1CC1)c1ccc(N2CCCCC2)c([N+](=O)[O-])c1 | > 43.4
Cn1c(CNC(=O)C2CCCCC2)cc2cc(Cl)ccc21 | < 0.3
CCNC(=O)COc1cc(C)c(Br)c(C)c1 | > 42.9
C=CCOc1ccc(CNCC2CCCO2)cc1.Cl (stereo not given) | > 42.6
COC(=O)c1c(C)oc(C)c1S(=O)(=O)NCc1cccs1 | 43.4 (≈ 132 µM)
O=C(c1cc2cc(F)ccc2[nH]1)N1CCN(c2cccc(Cl)c2)CC1 | 0.5 (≈ 1.4 µM)
Clc1cccc(Cl)c1CO/N=C/c1cccs1 | > 42.9
CN1C(=O)C(CCC(=O)O)NC1=S (stereo not given) | 28.2 (≈ 139 µM)
COc1ccc(NC(=O)COC(=O)CC2CCCCC2)cc1 | > 45.8
Cn1c(-c2ccccn2)[n+](C)c2ccccc21.[Cl-] | > 39
O=c1c2ccccc2nc(/C=C/c2c[nH]c3ccccc23)n1CCO | 8.6 (≈ 26 µM)
COc1ccccc1CNC(=O)Cn1c(=O)oc2cc(Cl)ccc21 | 1.7 (≈ 4.9 µM)
CCc1ccccc1NC(=O)c1cc([N+](=O)[O-])ccc1N1CCOCC1 | > 53.3
Cc1ccc(OCc2cnc(Cl)s2)c(C)c1 | < 0.5
COc1cc(CNC(=O)c2cc3ccccc3oc2=O)cc(OC)c1OC | 4.6 (≈ 12.5 µM)
CS(=O)(=O)NCC(c1cccnc1)N1CCN(c2ccccc2F)CC1 (stereo not given) | 55.4 (≈ 146 µM)
CCCC12CN3CC(CCC)(CN(C1)C3c1ccco1)C2=O (stereo not given) | > 45.4
CC[C@H](C)[C@H](NC(N)=O)C(=O)NCCc1ccc(OC)cc1 | > 46.1
O=C(COC(=O)CNC(=O)c1ccc(Cl)cc1)Nc1ccc(Cl)cn1 | 3.2 (≈ 8.37 µM)
Cc1nc(C)c(C(=O)OC(C)C(=O)Nc2ccc(F)cc2)s1 (stereo not given) | > 48.4

SMILES | solubility kinetic [µg/mL]
CCc1ccccc1NC(=O)Nc1ccon1 | 29.1 (≈ 126 µM)
Cc1ccc(NC(=S)Nc2ccccn2)c(C)c1 | 3.1 (≈ 12 µM)
CC1Cc2ccccc2N1C(=O)COC(=O)c1ccc(O)cc1 (stereo not given) | 5.1 (≈ 16.4 µM)
CC(=O)c1ccc2noc(-c3ccccc3)c2c1 | 31.8 (≈ 134 µM)
COC(=O)c1cc(C(=O)Nc2ccc(Cl)cn2)cc([N+](=O)[O-])c1 | 2.5 (≈ 7.45 µM)
N#Cc1c(-c2ccc(F)cc2)c2c([nH]c1=O)-c1ccccc1OC2 | 1.2 (≈ 3.77 µM)
CC(C)Sc1ccc([N+](=O)[O-])cc1C(=O)Nc1ccncc1 | 40.8 (≈ 129 µM)
CSCc1c(C(=O)Nc2ccc3c(c2)OCO3)oc2ccccc12 | 6.4 (≈ 18.7 µM)
CCC(C(=O)Nc1cccnc1)c1ccccc1 (stereo not given) | 34.3 (≈ 143 µM)
CCNC(=S)Nc1ccc(NC(=O)c2ccccc2O)cc1 | 21.9 (≈ 69.4 µM)
O=C(CN1CCCCCCC1)NC(=O)NC1CCCCC1 | 30.2 (≈ 102 µM)
Cc1cc(N2CCOCC2)n2cc(-c3ccccc3)nc2n1 | 12.3 (≈ 41.8 µM)
CC(CCc1ccccc1)NC(=O)Cc1ccc(Br)cc1 (stereo not given) | 2.5 (≈ 7.22 µM)
O=c1[nH]c(O)c(C=NCCc2ccccc2)c(=O)[nH]1 | 3.6 (≈ 13.9 µM)
Nc1nc(NCc2ccco2)nc(Nc2ccc(F)cc2)c1[N+](=O)[O-] | 0.1 (≈ 0.29 µM)
Cc1nn(C)c(Cl)c1CN1CCN(C2CCCC2)C(CCO)C1 (stereo not given) | > 51.1
Cc1ccc(-c2cc(-c3ccccc3)nc(N)c2C#N)o1 | < 0.2
O=S(=O)(c1cccc2nsnc12)N1CCNCC1 | > 42.7
CC(C)(C)CC(=O)NC(=S)NCc1ccco1 | 9.3 (≈ 36.6 µM)
CCOC(=O)C1CCN(Cc2ccc(-c3ccccc3)cc2)CC1 | 25.6 (≈ 79.2 µM)
O=C(O)CCC(=O)Nc1ccc(Oc2ncnc3cc(Cl)ccc23)nc1 | > 55.9
COc1ccc(C(=O)N=c2sc3ccccc3n2C)cc1OC | < 0.4
COc1ccc(Cl)cc1N(CC(=O)N1CCCC1)S(C)(=O)=O | 51.5 (≈ 148 µM)
Cc1ccc(CN(CCO)CCO)cc1 | 29.4 (≈ 140 µM)
